Data set [1] has as its system Mycobacterium tuberculosis H37Rv strain. In words: In vitro MIC against M. tuberculosis H37Rv strain (MABA, Alamar Blue). The data set is classed as cell-based.
A further data set has as its system Vero Cell. In words: Vero cell cytotoxicity. The data set is classed as cell-based. The conditions noted are these: Chlorocebus sabaeus, Vero cells.
The next data set is described as follows: Kinetic solubility test. It counts as physicochemical. To be noted: buffer, 22 °C, aqueous buffer, kinetic from dmso stock, pH 2.0, room temperature. The protocol: 1. […] The test compound and the control compound (10 mM DMSO mother liquor, 10 uL per well) were added to a 96-well plate containing 490 uL of buffer per well. After vortexing for 2 minutes, the plates were incubated on the shaker at room temperature (22±2° C.) for 24 hours. The 200 uL sample was then transferred to a MultiScreen filter plate (polycarbonate film), filtered through a millipore vacuum manifold, and the filtrate was collected. The concentration of the compound in the filtrate was determined by HPLC-UV. Three different concentrations of UV standard solution and solubility test samples were injected successively. Each sample was injected 2 times, and the concentration was taken into the standard curve, and the average value was calculated.

For data set [2], the system named is Mycobacterium bovis BCG strain TMC1019 (ATCC35737). In words: microbe, parasite or virus in culture. It counts as cell-based. To be noted: Mycobacterium tuberculosis variant bovis BCG, 24 h, read-out: M. bovis ATCC35737 (ug/mL).
For the next data set, the system named is P-glycoprotein (MDR1). In words: MDR1-MDCK cell bi-directional permeability. The data set is classed as in vitro ADME. To be noted: dog; for Papp A→B at 2.5 h, 2 μM: A to B, HBSS pH 7.4, read-out: MDR1-MDCK Monolayer Cell Bi-directional Permeability Parameters A to B; for Papp B→A at 2.5 h, 2 μM: B to A, HBSS pH 7.4, read-out: MDR1-MDCK Monolayer Cell Bi-directional Permeability Parameters B to A; for efflux ratio at 2.5 h, 2 μM: HBSS pH 7.4, read-out: MDR1-MDCK Monolayer Cell Bi-directional Permeability Parameters Efflux Ratio. An excerpt: 2. MDR1-MDCK cell bi-directional permeability evaluation experiment: MDR1-MDCK cells that permanently express human P-glycoprotein (P-glycoprotein) were planted on 96-well Insert cell plates and cultured for 4 to 7 days to form aggregated monolayer cells. The assessment of unidirectional (A→B) permeability of the fenoterol (low permeability marker) and propranolol (high permeability marker) and the bi-directional permeability of Digoxin (a P-glycoprotein substrate) were used to verify the quality of monolayer cells. The three control compounds do two complex wells.
The standard conditions for the transport experiments of the test compound were as follows: • Test concentration: 2 μM (DMSO≤1%); • Repetition: n=3; • Direction: bidirectional transport consisting of two directions: A→B and B→A; • Incubation time: single time point, 2.5 hours; • Transport buffer: HB SS, pH 7.4; • Incubation conditions: 37° C., 5% CO2, 95% relative humidity.
After the incubation, the sample solutions taken from the donor wells and the receive wells were immediately mixed with a cold acetonitrile solution containing the internal standard. And the amount of accumulation of intracellular compounds was measured by lysing the cells with a cold acetonitrile solution containing the internal standard. The concentrations of the test compound in all samples (including the initial administration solution, the supernatant of donor wells, the receiver solution, the cell lysate) were analyzed by the LC/MS/MS method. The concentration of the test compound was expressed by the ratio of its peak area to the internal standard peak area.

The subject of a further data set is M. tuberculosis H37R. In words: M. tuberculosis LORA MIC. The data set is classed as cell-based. The conditions noted are these: Mycobacterium tuberculosis, read-out: M. tuberculosis H37R LORA (MIC) (ug/mL).
Data set [3] can be described thus: Pharmacokinetics in vivo in mice. The conditions noted are these: CD-1 male mice; for Pulmonary Drug Concentration (nM/Kg) PO 1 (h): lung, 1 h after administration; for Cmax: mouse, plasma. The protocol:
The pharmacokinetic characteristics of rodents after intravenous and oral administration of the compound were tested in a standard protocol. Specifically, the candidate compounds of the experiment were injected intravenously and administered orally for 7 to 10 weeks old CD-1 male mice. The oral preparation was a 0.5% suspension of methylcellulose, and the intravenous preparation was a clear solution of ethanol/DMSO/polyethylene glycol 400/pure water (10:10:50:30). Plasma and lung samples were collected and analyzed by the LC-MS/MS method and the pharmacokinetic parameters were calculated.

Values after ≈ are worked out from the molar mass of the structure shown.

For orientation: IC50 means the concentration needed to halve the response being measured. By kinetic solubility is commonly meant the concentration staying in solution when a stock, usually in DMSO, is diluted into the medium. `CC1(CN2CCc3nc(-c4ccccc4)ccc3C2)Cn2cc([N+](=O)[O-])nc2O1` (single isomer, unassigned) [Compound 1B, 2-methyl-6-nitro-2-((2-phenyl-7,8-dihydro-1,6-naphthyridin-6(5H)-yl)methyl)-2,3-dihydroimidazo[2,1-b]oxazole] returned an MIC in data set [1] below 1 µg/mL. Moreover, the IC50 in the data set on Vero Cell was above 32 µg/mL. In addition, in “Kinetic solubility test”, the kinetic solubility at 24 h came to 130 µM (≈ 50.7 µg/mL). Further, the MIC in data set [2] was below 1 µg/mL. Besides, in the data set on P-glycoprotein (MDR1), the Papp A→B at 2.5 h, 2 μM was 16.8 ×10⁻⁶ cm/s; the Papp B→A at 2.5 h, 2 μM came to 22.7 ×10⁻⁶ cm/s; the efflux ratio at 2.5 h, 2 μM was 1.35. The MIC in the data set on M. tuberculosis H37R is 1 to 32 µg/mL (≈ 2.55 to 81.8 µM).
As usually defined, the Cmax is the maximum level reached in the sampled fluid or tissue. With `C[C@]1(CN2CCc3nc(-c4ccc(F)cc4)ccc3C2)Cn2cc([N+](=O)[O-])nc2O1` [Compound 7, (S)-2-((2-(4-Fluorophenyl)-7,8-dihydro-1,6-naphthyridin-6(5H)-yl)methyl)-2-methyl-6-nitro-2,3-dihydroimidazo[2,1-b]oxazole], in data set [3], the “Pulmonary Drug Concentration (nM/Kg) PO 1 (h)” value was found to be 16147 nM/kg. Further, in data set [3] (oral, 1 hour after administration), the “drug concentration in lung relative to the reference compound (OPC-67683)” value was “more than 9 times”. Also, the Cmax in data set [3] (oral) stood at 6720 nM. The same compound came in with an MIC in data set [1] below 1 µg/mL. This compound also yielded an IC50 in the data set on Vero Cell above 32 µg/mL. The solubility (kinetic) at 24 h in the data set “Kinetic solubility test” stood at 143 µM (≈ 58.7 µg/mL). In data set [2], the MIC was below 1 µg/mL. Moreover, in the data set on P-glycoprotein (MDR1), the Papp A→B at 2.5 h, 2 μM was 17.7 ×10⁻⁶ cm/s; the Papp B→A at 2.5 h, 2 μM worked out at 19.3 ×10⁻⁶ cm/s; the efflux ratio at 2.5 h, 2 μM worked out at 1.09. Also, the MIC in the data set on M. tuberculosis H37R was 1 to 32 µg/mL (≈ 2.44 to 78.2 µM).
As to `C[C@]1(CN2Cc3nc(-c4ccc(F)cc4)sc3C2)Cn2cc([N+](=O)[O-])nc2O1` [Compound 69, (S)-2-((2-(4-Fluorophenyl)-4H-pyrrolo[3,4-d]thiazol-5(6H)-yl)methyl)-2-methyl-6-nitro-2,3-dihydroimidazo[2,1-b]oxazole], the MIC was below 1 µg/mL in data set [1], below 1 µg/mL in data set [2] and 1 to 32 µg/mL (≈ 2.49 to 79.7 µM) with M. tuberculosis H37R. The IC50 with Vero Cell was above 32 µg/mL. In “Kinetic solubility test”, this compound yielded a solubility (kinetic) at 24 h of 39.3 µM (≈ 15.8 µg/mL). Also, the Papp A→B at 2.5 h, 2 μM in the data set with P-glycoprotein (MDR1) is 20.9 ×10⁻⁶ cm/s. Moreover, the Papp B→A at 2.5 h, 2 μM with P-glycoprotein (MDR1) turned out to be 15.8 ×10⁻⁶ cm/s. The efflux ratio at 2.5 h, 2 μM in the data set on P-glycoprotein (MDR1) came out at 0.76.
`C[C@]1(CN2Cc3nc(-c4ccc(F)cc4)oc3C2)Cn2cc([N+](=O)[O-])nc2O1` [Compound 89, (S)-2-(4-Fluorophenyl)-5-((2-methyl-6-nitro-2,3-dihydroimidazo[2,1-b]oxazol-2-yl)methyl)-5,6-dihydro-4H-pyrrolo[3,4-d]oxazole] registered an MIC in data set [1] below 1 µg/mL. The IC50 with Vero Cell was above 32 µg/mL. This compound registered a kinetic solubility at 24 h in “Kinetic solubility test” of 100 µM (≈ 38.7 µg/mL). The MIC in data set [2] was below 1 µg/mL. In the data set with P-glycoprotein (MDR1), the Papp A→B at 2.5 h, 2 μM worked out at 25.9 ×10⁻⁶ cm/s; the Papp B→A at 2.5 h, 2 μM was determined as 18.5 ×10⁻⁶ cm/s; the efflux ratio at 2.5 h, 2 μM was found to be 0.71.
As to `C[C@]1(COc2ccc(N3CCC(Oc4ccc(OC(F)(F)F)cc4)CC3)cc2)Cn2cc([N+](=O)[O-])nc2O1` [OPC-67683, delamanid, reference compound], the “Pulmonary Drug Concentration (nM/Kg) PO 1 (h)” value in data set [3] was found to be 1677 nM/kg. Besides, the Cmax in data set [3] (oral) was 4740 nM. Further, in the data set on P-glycoprotein (MDR1), the Papp A→B at 2.5 h, 2 μM worked out at 0.09 ×10⁻⁶ cm/s and the Papp B→A at 2.5 h, 2 μM turned out to be 0.17 ×10⁻⁶ cm/s.

The values are drawn from US10227362B2 (priority 2015, dated 2019).
